# Results as given in patent publication US6869783B1, “Method for producing chiral carboxylic acids from nitriles with the assistance of a nitrilase or microoganisms which contain a gene for the nitrilase” (BASF Aktiengesellschaft, priority 1998, dated 2005).
# System: nitrilase 1650
# Experiment: Conversion of various nitriles with nitrilase 1650 (NH4 ions in supernatant, microtiter plate)
# Type: biochemical, Alcaligenes faecalis 1650
# Set-up: Activity: unit not given here
# Details: 10 mM substrate, 2 g/l dry biomass, 30° C, 2 hours, pH 7.2
Compound,% conversion [%],Activity
α-(3-heptyl)-nitro-triacetonitrile [Substrate 14],44.1,0.35

# Same assay, conditions: 10 mM substrate, 2 g/l dry biomass, 30° C, 2 hours, pH 7.2; average of a microtiter plate row
row,Compound,μmol/l (amount of NH4 ions produced in the supernatant) [µmol/L]
1,α-(3-heptyl)-nitro-triacetonitrile [Substrate 14],84.8

# Same assay, conditions: pH 7.2
Compound,% conversion [%],Activity,μmol/l (amount of NH4 ions produced in the supernatant) [µmol/L]
"N#CCc1ccc(Cl)cc1 [Substrate 5, 4-chlorobenzyl cyanide]",100,8.9,2136.3
"CCCCC#N [Substrate 10, valeronitrile]",,0.47,113.4
"N#CCc1ccccc1 [Substrate 4, benzyl cyanide]",100,9.2,2210.5
"CCC(C#N)c1ccccc1 (stereo not shown) [Substrate 3, 2-phenylbutyronitrile]",44.3,0.1,24.4
"CC(C#N)c1ccccc1 (stereo not shown) [Substrate 2, 2-phenylpropionitrile]",70.2,4.1,1001.1
"CCC#N [Substrate 7, propionitrile]",,0.02,4.9
"N#CCc1ccc(Br)cc1 [Substrate 6, 4-bromobenzyl cyanide]",100,6.2,1500.8
